# Data reported in US20150037255A1, “PHTHALOCYANINE DYE-CONTAINING CONTRAST AGENT FOR PHOTOACOUSTIC IMAGING” (CANON KABUSHIKI KAISHA, priority 2013, published 2015).
# Experiment: Hydrophobicity evaluation of hydrophobic metal phthalocyanine dye by TLC (Rf value)
# Type: physicochemical
# Conditions: TLC glass plate RP-18, methanol containing 1% by weight lithium chloride; value of the dye used
# Method: To compare the hydrophobicities of hydrophobic metal phthalocyanine dyes, evaluation was carried out using a thin-layer liquid chromatography (hereinafter sometimes abbreviated as TLC) method.
# A TLC glass plate, RP-18 (from Merck & Co., Inc.), was used as a development plate, and a methanol solution containing 1% by weight of lithium chloride was used as a development solvent.
# According to an established method, a dye solution was spotted on the starting line and the relative migration distance (hereinafter sometimes abbreviated as Rf value) was calculated based on the following equation. Rf value=the distance from the starting line to the center of the spot of the component/the distance from the starting line to the top of the solvent
row,Rf Value,Substance
1,0.08,"Cobalt 2,9,16,23-tetra-tert-butyl-29H,31H-phthalocyanine"
2,0.06,"Copper (II) 2,9,16,23-tetra-tert-butyl-29H,31H-phthalocyanine"
3,0.10,"Zinc 2,9,16,23-tetra-tert-butyl-29H,31H-phthalocyanine"
4,0.12,tert-butyl silicon-[bis trimethylsiloxy]-phthalocyanine
